Read-outs that look alike come from different tables or passages of the source.
Tests used:
[1] = log P by HPLC on reversed-phase column (C18), EEC Directive 79/831 Annex V.A8
Excerpt: Called log P (HCOOH) in the table.
Called log P (neutral) in the table.

[2] = test system: Phaedon cochleariae; experiment: Phaedon cochleariae spray test; type: in vivo; conditions: for pest or weed control at 500 g/ha: Phaedon cochleariae, 168 h, read-out: efficacy in %
Experimental: Phaedon cochleariae-Spray Test
Solvent: 78.0 parts by weight of acetone
(§1) • 1.5 parts by weight of dimethylformamide Emulsifier: alkylaryl polyglycol ether
(§2) To produce a suitable preparation of active compound, 1 part by weight of active compound is dissolved using the stated parts by weight of solvent and made up with water containing an emulsifier concentration of 1000 ppm until the desired concentration is attained. To produce further test concentrations, the preparation is diluted with emulsifier-containing water.
After 7 days, the efficacy in % is determined. 100% means that all the beetle larvae have been killed; 0% means that no beetle larvae have been killed.

[3] = test system: Myzus persicae; experiment: Myzus persicae spray test (Chinese cabbage leaf discs); type: in vivo; conditions: for pest or weed control at 500 g/ha: Myzus persicae, foliar, 144 h, read-out: efficacy in %
Experimental: Myzus persicae Spray Test
Solvent: 78 parts by weight of acetone
as §1, §2
Discs of Chinese cabbage leaves (Brassica pekinensis) infested by all stages of the green peach aphid (Myzus persicae) are sprayed with an active compound preparation of the desired concentration.
After 6 days, the efficacy in % is determined. 100% means that all the aphids have been killed; 0% means that no aphids have been killed.

[4] = 500 g/ha, after 7 days, beetle larvae killed
[5] = 500 g/ha, after 6 days, aphids killed
[6] = LC-MS acidic range, pH 2.7 (HCOOH), C18, 55° C.
[7] = LC-MS neutral range, pH 7.8, C18, 55° C.
[8] = reversed-phase HPLC column (C18), pH 2.7, logP-acidic, LC-MS acidic range, pH 2.7 (HCOOH), C18, 55° C.
[9] = reversed-phase HPLC column (C18), pH 7.8, log P (neutral), preparation examples, neutral range, pH 7.8
[10] = reversed-phase HPLC column (C18), pH 7.8, logP-neutral, LC-MS neutral range, pH 7.8, C18, 55° C.
[11] = 100 g/ha, after 6 days, aphids killed

| SMILES | logP-acidic ([1]; pH 2.7) | logP-neutral ([1]; pH 7.8) | efficacy in % [2, 4] [%] | efficacy in % [3, 5] [%] | further results |
| --- | --- | --- | --- | --- | --- |
| CCC(=O)Nc1ccc([S+]([O-])CC)c(-c2nc3cc(C(F)(F)F)ncc3n2C)n1 (stereo not shown) [Example 2] | 2.33 | 2.25 | 100 | 90 | – |
| CCS(=O)(=O)c1ccc(NC(=O)C(F)(F)F)nc1-c1nc2cc(C(F)(F)F)ncc2n1C [Example 3] | 2.74 | 1.73 | 100 | 100 | – |
| CCS(=O)(=O)c1ccc(NC(=O)C(F)(F)C(F)(F)F)nc1-c1nc2cc(C(F)(F)F)ncc2n1C [Example 4] | – | – | 100 | 100 | logP-acidic [1, 6]: 3.17; logP-neutral [1, 7]: 1.94 |
| CCS(=O)(=O)c1ccc(NC(=O)CC2CC2)nc1-c1nc2cc(C(F)(F)F)ncc2n1C [Example 7] | 2.71 | 2.66 | 100 | 90 | – |
| CC[S+]([O-])c1ccc(NC(C)=O)nc1-c1nc2cc(C(F)(F)F)ncc2n1C (stereo not shown) [Example 9] | 2.02 | 1.97 | 83 | 90 | – |
| CCC(=O)Nc1ccc(S(=O)(=O)CC)c(-c2nc3cc(C(F)(F)F)ncc3n2C)n1 [Example 13] | 2.33 | 2.28 | 100 | 90 | – |
| CCS(=O)(=O)c1ccc(NC(=O)C(C)C)nc1-c1nc2cc(C(F)(F)F)ncc2n1C [Example 16, N-{5-(Ethylsulphonyl)-6-[3-methyl-6-(trifluoromethyl)-3H-imidazo[4,5-c]pyridin-2-yl]pyridin-2-yl}-2-methylpropanamide] | – | – | – | – | chromatographic logP [1, 8]: 2.63; chromatographic logP [1, 9]: 2.61; chromatographic logP [1, 10]: 2.61; pest or weed control at 500 g/ha [2, 4]: 100%; pest or weed control at 500 g/ha [3, 5]: 100% |
| CCS(=O)(=O)c1ccc(NC(=O)c2ccccc2)nc1-c1nc2cc(C(F)(F)F)ncc2n1C [Example 20] | 2.98 | – | 83 | 90 | – |
| CCNC(=O)c1ccc(S(=O)(=O)CC)c(-c2nc3cc(C(F)(F)F)ncc3n2C)n1 [Example 32] | 2.29 | 2.22 | 100 | – | – |
| CCS(=O)(=O)c1ccc(C(=S)NC2CC2)nc1-c1nc2cc(C(F)(F)F)ncc2n1C [Example 36] | 3.17 | 3.14 | 100 | 90 | – |
| CC[S+]([O-])c1ccc(S(=O)(=O)CC)c(-c2nc3cc(C(F)(F)F)ncc3n2C)n1 (stereo not shown) [Example 37, 2-[6-(Ethylsulphinyl)-3-(ethylsulphonyl)pyridin-2-yl]-3-methyl-6-(trifluoromethyl)-3H-imidazo[4,5-c]pyridine] | – | – | – | – | chromatographic logP [1, 8]: 2.03; chromatographic logP [1, 9]: 2.02; chromatographic logP [1, 10]: 2.02; pest or weed control at 500 g/ha [2, 4]: 100%; pest or weed control at 500 g/ha [3, 5]: 90% |
| CCS(=O)(=O)c1ccc(NC)nc1-c1nc2cc(C(F)(F)F)ncc2n1C [Example 38] | – | – | 100 | 90 | logP-acidic [1, 6]: 2.05; logP-neutral [1, 7]: 2.03 |
| CCS(=O)(=O)c1ccc(/S(C)=N/C#N)nc1-c1nc2cc(C(F)(F)F)ncc2n1C (stereo not shown) [Example 43, [{5-(Ethylsulphonyl)-6-[3-methyl-6-(trifluoromethyl)-3H-imidazo[4,5-c]pyridin-2-yl]pyridin-2-yl}(methyl)-lambda4-sulphanylidene]cyanamide] | – | – | – | – | chromatographic logP [1, 8]: 1.75; chromatographic logP [1, 9]: 1.75; chromatographic logP [1, 10]: 1.75; pest or weed control at 500 g/ha [2, 4]: 100%; pest or weed control at 500 g/ha [3, 5]: 90% |
| CCS(=O)(=O)c1ccc([S+](C)[O-])nc1-c1nc2cc(C(F)(F)F)ncc2n1C (stereo not shown) [Example 44] | – | – | – | 90 | – |
| CCS(=O)(=O)c1ccc(C(N)=O)nc1-c1nc2cc(C(F)(F)F)ncc2n1C [Example 46] | – | – | 100 | – | logP-acidic [1, 6]: 1.78; logP-neutral [1, 7]: 1.68 |
| CCCOc1ccc(S(=O)(=O)CC)c(-c2nc3cc(C(F)(F)F)ncc3n2C)n1 [Example 51] | 3.37 | 3.36 | 100 | – | – |
| CCOCC(=O)Nc1ccc(S(=O)(=O)CC)c(-c2nc3cc(C(F)(F)F)ncc3n2C)n1 [Example 52] | 2.64 | 2.51 | 100 | 100 | – |
| CCS(=O)(=O)c1ccc(NC(=O)CSC)nc1-c1nc2cc(C(F)(F)F)ncc2n1C [Example 53] | 2.51 | 2.38 | 100 | 90 | – |
| CCS(=O)(=O)c1ccc(NC(=O)c2cccnc2)nc1-c1nc2cc(C(F)(F)F)ncc2n1C [Example 54] | 2.08 | 2.12 | 100 | – | – |
| CCS(=O)(=O)c1ccc(NN)nc1-c1nc2cc(C(F)(F)F)ncc2n1C [Example 55] | – | – | 100 | 100 | logP-acidic [1, 6]: 1.39 |
| CCS(=O)(=O)c1ccc(NC(=O)C(C)C[S+](C)[O-])nc1-c1nc2cc(C(F)(F)F)ncc2n1C (stereo not shown) [Example 57] | 1.81 | – | 100 | 90 | – |
| CCS(=O)(=O)Nc1ccc(S(=O)(=O)CC)c(-c2nc3cc(C(F)(F)F)ncc3n2C)n1 [Example 59] | 2.08 | 0.90 | – | – | efficacy in % [3, 11]: 100% |
| CCS(=O)(=O)c1ccc(NC(=O)C(C)CS(C)(=O)=O)nc1-c1nc2cc(C(F)(F)F)ncc2n1C (stereo not shown) [Example 61] | 2.02 | – | 100 | 100 | – |
| CCS(=O)(=O)c1ccc(NC(C)=S)nc1-c1nc2cc(C(F)(F)F)ncc2n1C [Example 63, N-[5-Ethylsulphonyl-6-[3-methyl-6-(trifluoromethyl)imidazo[4,5-c]pyridin-2-yl]-2-pyridyl]thioacetamide] | – | – | – | – | chromatographic logP ([1]; pH 2.7): 2.6; chromatographic logP ([1]; pH 7.8): 2.41; pest or weed control at 500 g/ha [2]: 100%; pest or weed control at 500 g/ha [3]: 90% |
| CCS(=O)(=O)c1ccc(NC(=O)c2cscn2)nc1-c1nc2cc(C(F)(F)F)ncc2n1C [Example 66] | 2.60 | 2.58 | 100 | – | efficacy in % [3, 11]: 90% |
| CCS(=O)(=O)c1ccc(N(C)C(C)=O)nc1-c1nc2cc(C(F)(F)F)ncc2n1C [Example 69] | – | – | 100 | 90 | logP-acidic [1, 6]: 2.11; logP-neutral [1, 7]: 2.10 |
| CCS(=O)(=O)c1ccc(NC(=O)C[S+](C)[O-])nc1-c1nc2cc(C(F)(F)F)ncc2n1C (stereo not shown) [Example 70] | 1.63 | 1.68 | 100 | 100 | – |
| CCS(=O)(=O)c1ccc(NC(=O)CS(C)(=O)=O)nc1-c1nc2cc(C(F)(F)F)ncc2n1C [Example 72] | 1.87 | 1.92 | 100 | 100 | – |
| CCS(=O)(=O)c1ccc(NC(=O)c2ccc(Cl)cc2)nc1-c1nc2cc(C(F)(F)F)ncc2n1C [Example 73] | 3.37 | 3.37 | – | – | efficacy in % ([2]; 100 g/ha, after 7 days, beetle larvae killed): 100% |

Source: US10654845B2, “2-(het)aryl-substituted fused bicyclic heterocycle derivatives as pesticides” (BAYER CROPSCIENCE AKTIENGESELLSCHAFT, priority 2015, dated 2020)
